# In ChEMBL document CHEMBL1146932, “A series of 23,24-dihydrodiscodermolide analogues with simplified lactone regions” (2006):
# Tests used:
# Format in all cases: functional
# Details in all cases: Homo sapiens
# NCI/ADR-RES = test: Antiproliferative activity against NCI/ADR cell line
# A549 [1] = test: Antiproliferative activity against A549 cell line
# MCF7 = test: Antiproliferative activity against MCF7 cell line
# A549 [2] = test: Antiproliferative activity against A549t12 cell line
# CCRF-CEM [3] = test: Antiproliferative activity against resistant CCRF-CEM/VBL cell line
# CCRF-CEM [4] = test: Antiproliferative activity against resistant CCRF-CEM/PTX cell line
# CCRF-CEM [5] = test: Antiproliferative activity against resistant CCRF-CEM/VP16 cell line
# CCRF-CEM [6] = test: Antiproliferative activity against CCRF-CEM cell line
SMILES,GI50 (NCI/ADR-RES),GI50 (A549 [1]),GI50 (MCF7),GI50 (A549 [2]),GI50 (CCRF-CEM [3]),GI50 (CCRF-CEM [4]),GI50 (CCRF-CEM [5]),GI50 (CCRF-CEM [6])
CC/C=C\[C@H](C)[C@H](OC(N)=O)[C@@H](C)[C@H](O)[C@@H](C)C/C(C)=C\[C@H](C)[C@@H](O)[C@@H](C)/C=C\[C@@H](O)C[C@@H]1OC(=O)[C@H](C)[C@@H](O)[C@H]1C,190 nM,7 nM,6.2 nM,,,,,
CC/C=C\[C@H](C)[C@H](OC(N)=O)[C@@H](C)[C@H](O)[C@@H](C)C/C(C)=C\[C@H](C)[C@@H](O)[C@@H](C)/C=C\[C@H](O)C[C@@H]1CCC(=O)O1,10000 nM,4000 nM,2000 nM,10000 nM,,,,
CC/C=C\[C@H](C)[C@H](OC(N)=O)[C@@H](C)[C@H](O)[C@@H](C)C/C(C)=C\[C@H](C)[C@@H](O)[C@@H](C)/C=C\[C@@H](O)C[C@@H]1OC(=O)[C@H](C)C[C@H]1C,140 nM,11 nM,5.8 nM,50 nM,209 nM,65 nM,12 nM,8.6 nM
CC/C=C\[C@H](C)[C@H](OC(N)=O)[C@@H](C)[C@H](O)[C@@H](C)C/C(C)=C\[C@H](C)[C@@H](O)[C@@H](C)/C=C\[C@@H](O)C[C@H](O)[C@H](C)CO,10000 nM,3000 nM,1000 nM,5000 nM,,,,
CC/C=C\[C@H](C)[C@H](OC(N)=O)[C@@H](C)[C@H](O)[C@@H](C)C/C(C)=C\[C@H](C)[C@@H](O)[C@@H](C)/C=C\[C@@H](O)C[C@H]1CCC(=O)O1,730 nM,46 nM,6.4 nM,63 nM,3810 nM,285 nM,7.1 nM,6.5 nM
CC/C=C\[C@H](C)[C@H](OC(N)=O)[C@@H](C)[C@H](O)[C@@H](C)C/C(C)=C\[C@H](C)[C@@H](O)[C@@H](C)/C=C\[C@@H](O)C[C@@H]1OC(=O)NC[C@H]1C,10000 nM,520 nM,110 nM,1000 nM,,,,
CC/C=C\[C@H](C)[C@H](OC(N)=O)[C@@H](C)[C@H](O)[C@@H](C)C/C(C)=C\[C@H](C)[C@@H](O)[C@@H](C)/C=C\[C@@H](O)C[C@H](O)[C@H](C)C[C@H](C)C(=O)OC,10000 nM,4000 nM,1000 nM,4000 nM,,,,
CC/C=C\[C@H](C)[C@H](OC(N)=O)[C@@H](C)[C@H](O)[C@@H](C)C/C(C)=C\[C@H](C)[C@@H](O)[C@@H](C)/C=C\[C@@H](O)C[C@@H]1OC(=O)[C@H](C)[C@@H](OC)[C@H]1C,250 nM,6.5 nM,3.8 nM,12 nM,416 nM,79 nM,8.4 nM,4.4 nM
C=C/C=C\[C@H](C)[C@H](OC(N)=O)[C@@H](C)[C@H](O)[C@@H](C)C/C(C)=C\[C@H](C)[C@@H](O)[C@@H](C)/C=C\[C@@H](O)C[C@@H]1OC(=O)[C@H](C)[C@@H](O)[C@H]1C [DISERMOLIDE],240 nM,22 nM,28 nM,30 nM,158 nM,92 nM,52 nM,16 nM
